# Laboratory results from the supplement of paper PMC10307832.
# How the values were obtained:
# Assay in all cases: relative viability (nuclei count vs DMSO), 5 days (fraction); higher = more cells survive
# IMD-0354 + Foretinib = compound: O=C(Nc1cc(C(F)(F)F)cc(C(F)(F)F)c1)c1cc(Cl)ccc1O [IMD-0354] + COc1cc2c(Oc3ccc(NC(=O)C4(C(=O)Nc5ccc(F)cc5)CC4)cc3F)ccnc2cc1OCCCN1CCOCC1 [Foretinib] (partner 0.25 µM)
# In short: (§1)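 Relative viability was taken as the ratio of nuclei in treated wells to nuclei in vehicle wells. Lung cancer cell lines in 1536-well plates received compounds by pin tool one day after seeding, either one drug alone or a fixed anchor-drug dose plus five library-drug doses (not always all listed) in √10 steps. Nuclei were counted on 4× images after 5 days of treatment, and values are medians of duplicate plates.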
# CX-5461 + Dasatinib = compound: Cc1cnc(CNC(=O)c2c(=O)c3ccc(N4CCCN(C)CC4)nc3n3c2sc2ccccc23)cn1 [CX-5461] + Cc1nc(Nc2ncc(C(=O)Nc3c(C)cccc3Cl)s2)cc(N2CCN(CCO)CC2)n1 [Dasatinib] (partner 0.075 µM)
# In short: as §1
# IMD-0354 + Crizotinib = compound: O=C(Nc1cc(C(F)(F)F)cc(C(F)(F)F)c1)c1cc(Cl)ccc1O [IMD-0354] + C[C@@H](Oc1cc(-c2cnn(C3CCNCC3)c2)cnc1N)c1c(Cl)ccc(F)c1Cl [Crizotinib] (partner 1 µM)
# In short: as §1
# CX-5461 + Alpelisib = compound: Cc1cnc(CNC(=O)c2c(=O)c3ccc(N4CCCN(C)CC4)nc3n3c2sc2ccccc23)cn1 [CX-5461] + Cc1nc(NC(=O)N2CCC[C@H]2C(N)=O)sc1-c1ccnc(C(C)(C)C(F)(F)F)c1 [Alpelisib] (partner 2 µM)
# In short: as §1
Cell Line,relative viability (IMD-0354 + Foretinib; first compound 0.04 µM),relative viability (IMD-0354 + Foretinib; first compound 0.1265 µM),relative viability (IMD-0354 + Foretinib; first compound 0.4 µM),relative viability (IMD-0354 + Foretinib; first compound 1.265 µM),relative viability (IMD-0354 + Foretinib; first compound 4 µM),relative viability (CX-5461 + Dasatinib; first compound 0.01 µM),relative viability (CX-5461 + Dasatinib; first compound 0.03162 µM),relative viability (CX-5461 + Dasatinib; first compound 0.1 µM),relative viability (CX-5461 + Dasatinib; first compound 0.3162 µM),relative viability (CX-5461 + Dasatinib; first compound 1 µM),relative viability (IMD-0354 + Crizotinib; first compound 0.04 µM),relative viability (IMD-0354 + Crizotinib; first compound 0.1265 µM),relative viability (IMD-0354 + Crizotinib; first compound 0.4 µM),relative viability (IMD-0354 + Crizotinib; first compound 1.265 µM),relative viability (IMD-0354 + Crizotinib; first compound 4 µM),relative viability (CX-5461 + Alpelisib; first compound 0.01 µM),relative viability (CX-5461 + Alpelisib; first compound 0.03162 µM),relative viability (CX-5461 + Alpelisib; first compound 0.1 µM),relative viability (CX-5461 + Alpelisib; first compound 0.3162 µM),relative viability (CX-5461 + Alpelisib; first compound 1 µM)
LU99A,0.655,0.806,0.612,0.682,0.273,0.759,0.499,0.439,0.341,0.172,0.453,0.62,0.482,0.214,0.203,0.536,0.544,0.527,0.364,0.413
LXF-289,0.945,0.99,0.646,0.483,0.129,0.257,0.204,0.202,0.103,0.154,0.834,0.803,0.575,0.229,0.069,1.03,1.07,1.06,0.916,1.02
NCI-H23,0.969,0.955,0.49,0.265,0.232,0.75,0.892,0.834,1.03,0.5,0.719,0.522,0.376,0.378,0.264,0.616,0.865,0.717,0.689,0.586
NCI-H322M,1.12,0.907,0.716,0.31,0.402,0.249,0.243,0.267,0.219,0.267,1.06,0.972,0.811,0.851,0.257,0.813,0.938,0.846,–,0.807
NCI-H358,0.753,0.828,0.372,0.163,0.126,0.146,0.148,0.176,0.0999,0.12,0.6,0.611,0.228,0.232,0.348,0.997,0.883,0.413,0.593,0.27
NCI-H441,0.919,0.872,0.478,0.28,0.272,0.593,0.486,0.747,0.419,0.364,0.573,0.713,0.514,0.363,0.202,0.76,0.876,0.694,0.727,0.438
NCI-H460,0.988,0.858,0.366,0.0865,0.026,0.554,0.435,0.263,0.516,0.0464,0.892,0.808,0.243,0.142,0.0357,0.484,0.489,0.0913,0.402,0.0154
NCI-H520,1.04,0.842,0.458,0.469,0.2,0.164,0.165,0.199,0.166,0.203,0.959,0.672,0.44,0.459,0.239,0.841,0.945,0.856,0.712,0.619
NCI-H596,0.901,0.844,0.634,0.917,0.307,0.613,0.639,0.596,0.623,0.473,0.928,1.04,0.858,0.955,0.451,0.509,0.494,0.52,0.524,0.441
NCI-H647,1.57,1.27,0.426,0.554,0.148,0.18,0.175,0.161,0.162,0.0641,1.37,1.2,0.505,0.168,0.185,1.29,1.22,1.06,1.27,0.211
NCI-H650,1.07,0.961,0.832,0.515,0.234,0.423,0.431,0.448,0.482,0.389,0.844,0.714,0.542,0.528,0.2,1.1,1.16,1.18,1.16,0.977
NCI-H661,1.06,1.01,0.681,0.295,0.24,1.06,0.863,0.9,–,0.4,1.07,1.2,0.869,0.524,0.317,0.805,0.674,0.876,–,0.588
NCI-H727,0.94,0.869,0.659,0.711,0.477,0.324,0.361,0.253,0.377,0.31,0.688,0.827,0.484,0.547,0.385,0.606,0.597,0.547,0.611,0.592
NCI-H838,1.08,0.925,0.463,0.579,0.403,0.283,0.292,0.38,0.241,0.243,0.912,0.776,0.424,0.561,0.279,1,1.05,1.06,0.709,0.896
NCI-H1355,1.11,0.943,0.646,0.908,0.298,0.81,0.792,0.665,0.449,0.389,1.29,1.04,0.956,0.97,0.242,0.867,0.82,0.928,0.758,0.878
NCI-H1437,1.34,1.16,0.624,0.424,0.251,0.434,0.373,0.431,0.32,0.368,1.02,0.905,0.548,0.238,0.207,0.979,0.941,–,0.913,0.801

Cell Line,relative viability (IMD-0354 + Foretinib; first compound 0.04 µM),relative viability (IMD-0354 + Foretinib; first compound 0.1265 µM),relative viability (IMD-0354 + Foretinib; first compound 0.4 µM),relative viability (IMD-0354 + Foretinib; first compound 1.265 µM),relative viability (IMD-0354 + Foretinib; first compound 4 µM),relative viability (CX-5461 + Dasatinib; first compound 0.01 µM),relative viability (CX-5461 + Dasatinib; first compound 0.03162 µM),relative viability (CX-5461 + Dasatinib; first compound 0.1 µM),relative viability (CX-5461 + Dasatinib; first compound 0.3162 µM),relative viability (CX-5461 + Dasatinib; first compound 1 µM),relative viability (IMD-0354 + Crizotinib; first compound 0.04 µM),relative viability (IMD-0354 + Crizotinib; first compound 0.1265 µM),relative viability (IMD-0354 + Crizotinib; first compound 0.4 µM),relative viability (IMD-0354 + Crizotinib; first compound 1.265 µM),relative viability (IMD-0354 + Crizotinib; first compound 4 µM),relative viability (CX-5461 + Alpelisib; first compound 0.01 µM),relative viability (CX-5461 + Alpelisib; first compound 0.03162 µM),relative viability (CX-5461 + Alpelisib; first compound 0.1 µM),relative viability (CX-5461 + Alpelisib; first compound 0.3162 µM),relative viability (CX-5461 + Alpelisib; first compound 1 µM)
NCI-H1563,1.06,0.936,0.837,0.388,0.44,0.461,0.426,0.464,0.444,0.444,0.904,0.774,0.822,0.484,0.44,0.903,0.85,0.899,0.901,0.489
NCI-H1651,0.816,0.716,0.433,0.312,0.0982,0.378,0.254,–,0.178,0.112,0.765,0.87,0.575,0.609,0.128,–,0.79,–,0.665,0.115
NCI-H1666,0.99,0.982,0.842,0.441,0.351,0.786,0.802,0.597,0.757,0.591,0.867,1.02,0.94,0.251,0.151,1.01,0.983,–,0.924,0.416
NCI-H1734,0.928,0.902,0.548,0.549,0.19,0.472,0.543,0.471,0.405,0.25,0.803,0.685,0.4,0.422,0.244,0.772,0.789,0.665,0.559,0.615
NCI-H1755,0.912,1.05,0.854,0.586,0.278,0.412,0.476,0.461,0.422,0.34,0.925,0.965,0.46,0.31,0.17,0.899,1.01,0.929,0.973,0.919
NCI-H1915,0.976,1.15,0.491,0.818,0.272,0.292,0.358,0.301,0.299,0.297,0.787,0.906,0.527,0.434,0.194,1.07,1.12,1.09,1.04,1.03
NCI-H1944,0.873,0.963,0.887,0.945,0.154,0.208,0.204,0.168,0.14,0.11,0.947,1.07,–,1.04,0.157,0.806,0.936,0.808,–,0.831
NCI-H1975,1.01,1.03,0.483,0.18,0.16,0.367,0.388,0.302,0.441,0.2,1.15,0.959,0.546,0.211,0.192,0.74,0.641,0.614,0.64,0.408
NCI-H1993,0.768,0.869,0.699,0.477,0.559,0.657,0.588,0.499,0.621,0.473,0.907,0.824,0.658,0.508,0.557,0.721,0.706,0.667,0.577,0.605
NCI-H2009,1.22,1.18,0.817,0.406,0.147,0.341,0.324,0.305,0.346,0.262,1.1,0.981,0.698,0.165,0.111,1.12,1.14,1.12,1.13,0.681
NCI-H2023,0.938,0.867,0.571,0.225,0.0843,0.667,0.603,0.245,0.497,0.0768,0.671,0.618,0.432,0.172,0.0868,0.646,0.606,–,0.57,0.0938
NCI-H2085,0.97,0.922,0.791,0.538,0.225,0.237,0.228,0.257,0.229,0.252,0.613,0.753,0.788,0.511,0.315,0.965,0.935,0.96,1.02,0.853
NCI-H2087,1.08,1.04,0.382,0.257,0.189,0.938,0.903,0.736,0.793,0.554,0.822,0.827,0.265,0.156,0.152,1.02,1.03,1.07,1.34,0.583
NCI-H2126,0.935,1.23,0.813,0.875,0.494,0.54,0.568,0.562,0.672,0.413,1.03,0.997,0.878,0.6,0.322,0.794,0.784,0.717,0.78,0.772
NCI-H2170,1.05,1.03,1.01,0.841,0.268,0.602,0.552,0.701,0.619,0.436,1.3,1.39,0.574,1.2,0.33,0.766,0.834,0.889,0.913,0.718
NCI-H2228,1.05,0.921,0.416,0.515,0.17,0.399,0.465,0.28,0.309,0.0755,0.389,0.442,0.405,0.179,0.22,0.709,0.884,0.504,0.591,0.234
